Series [1] relates to FC1199 orthotopic tumors. The series is described as follows: in vivo FC1199 orthotopic tumors, tumor burden as pancreas weight. More on the design: species or system mice. As to conditions: for tumor burden / tumor growth as measured by pancreas weight: orthotopic FC1199 tumors in mice, no day stated; for potentiation of the therapeutic effects of gemcitabine / chemotherapeutic agent in vivo: combination, pancreas weight, FIGS. 21 and 22. An excerpt:
FIGS. 1-24 show the in vitro and in vivo studies of CCNp37 (SEQ ID NO. 37) (Peptide 2 in the FIGS.) and CCNp38 (SEQ ID NO. 38) (Peptide 1 in the FIGS.) alone or in combination with a chemotherapeutic agent gemcitabine in treating pancreatic cells or orthotopic tumors implanted in the pancreas of mice. Gemcitibine is an example of an approved small molecule chemotherapeutic agent that is used in the clinic for pancreatic cancer, other suitable chemotherapeutic or immunotherapeutic agents are, for example, Abraxane (Paclitaxel Albumin-stabilized Nanoparticle Formulation), Afinitor (Everolimus), Erlotinib Hydrochloride, Everolimus, 5-FU (Fluorouracil Injection), Fluorouracil Injection, Gemcitabine Hydrochloride, Gemzar (Gemcitabine Hydrochloride), Irinotecan Hydrochloride Liposome, Mitomycin C, Mitozytrex (Mitomycin C), Mutamycin (Mitomycin C), Onivyde (Irinotecan Hydrochloride Liposome), Paclitaxel Albumin-stabilized Nanoparticle Formulation, Sunitinib Malate, Sutent (Sunitinib Malate), and Tarceva (Erlotinib Hydrochloride) and combinations of the same. Other suitable drug combinations for treating pancreatic cancer includes: FOLFIRINOX, GEMCITABINE-CISPLATIN, GEMCITABINE-OXALIPLATIN, and OFF. Suitable drugs for treatment for gastroenteropancreatic neuroendocrine tumors: Lanreotide Acetate, and Somatuline Depot (Lanreotide Acetate).
(§1) FIGS. 6-24 show the experimental protocol and results of in vivo studies of orthotopic tumors derived from the Murine FC1199 cell line and implanted into Kras and P53 mice.
FIGS. 18 and 19 show the protocol of a second in vivo experiment (Experiment 2).
(§2) FIGS. 21-24 show the protocol for the second invo experiment on the effectiveness of administering Peptides 1 and 2±gemcitabine. […] In FIG. 21, peptide 1 or 2 was delivered on day 11 of the study after tumor implantation and gemcitabine was delivered on day 14. […] Ascites formation is a marker of late stage pancreatic cancer and can predict mortality.

Series [2] in a line: in vivo toxicity study (body weight change). As to conditions: tumor-bearing mice.
Excerpt: as §1
Ascites formation is a marker of late stage pancreatic cancer and can predict mortality.

The test system of series [3] is Human MIA PaCa2-Luc, and Murine FC1199 pancreatic cancer cell lines. The series is described as follows: in vitro cancer cell growth in two pancreatic cancer cell lines. Format: cell-based. The note with it: FIGS. 2-5. An excerpt: (§3) Peptides were examined in two different pancreatic cancer cell lines to determine consistency of response. We sought to determine if there was efficacy of the peptide alone, or in combination with conventional chemotherapy, i.e., does it potentiate the effects of current therapy. The two cell lines used were Human MIA PaCa2-Luc, and Murine FC1199 (derived from tumors in KPC GEM mice).
(§4) The in vitro studies used human MIA PaCa2-Luc, and Murine FC1199 cell lines.

For series [4], the system named is MIA PaCa2-Luc cancer cells. Kind of series: in vitro proliferation of MIA PaCa2-Luc cancer cells. As to conditions: FIG. 2. The class given is cell-based, Human.
Excerpt: as §3
(§5) While not wishing to be bound to any particular theory, it was hypothesized that the peptides might still be effective in blocking the formation and/or removing the formation of desmoplasia or tumor stroma associated with a solid tumor alone acting to prevent and or to treat cancer and as well to providing greater access of the chemotherapeutic or immunotherapeutic agent to the tumor. […] It is believed that many large, and smaller, molecule immunotherapeutic agents will not react with Peptides 1 and 2 and they may also be used in combination with one another.
as §4

The subject of another series is FC1199 cells. Kind of series: in vitro FC1199 cell growth, gemcitabine repression. The note with it: FIGS. 3 and 5. Format: cell-based, Murine.
Excerpt: as §3, §4

The test system of series [5] is FC1199 orthotopic tumors. The series is described as follows: in vivo FC1199 orthotopic tumors, matrix deposition (desmoplasia). More on the design: species or system mice. As to conditions: no day stated.
Excerpt: as §5, §1

In series [6] the test system is FC1199 orthotopic tumors. Kind of series: in vivo FC1199 orthotopic tumors, vessel number/vessel density (angiogenesis). Also on record: species or system mice. The note with it: no day stated.
Excerpt: as §5

The subject of series [7] is FC1199 orthotopic tumors. The series is described as follows: in vivo FC1199 orthotopic tumors, ascites production. More on the design: species or system mice.
Excerpt: as §2

The subject of another series is renal fibrosis. As to conditions: disclosed in U.S. Pat. No. 7,780,949; cited from earlier work.

Here are results for 4 molecules from patent US10028906B2, “Method and kit for treating a solid tumor and associated desmoplasia” (Rosalind Franklin Univ. of Medicine and Science, priority 2016, dated 2018).

“Also recorded” adds a separate entry of the source. Where no end group is shown, it is not given here.

On to `Nc1ccn([C@@H]2O[C@H](CO)[C@@H](O)C2(F)F)c(=O)n1` [Gemcitabine, gemcitabine, reference compound], for which the “tumor burden / tumor growth as measured by pancreas weight” value with FC1199 orthotopic tumors [1] is on record as “produces a dose-dependent response to tumor burden”.
In the case of “FSGVSSDGRSSTPH [Peptide 2, FSGVSSDGRSSTPH]”, in [2], the “toxicity (body weight change)” value was “non-toxic”.
With “SDRSADPNNQTGIS [Peptide 1, Mouse analog with native cysteines replaced with serines]”, in series [3] (agent alone), the “cancer growth / cell proliferation in vitro” value was “did not slow cancer growth in vitro; also recorded: do not have an effect in cell proliferation”. The “potentiation of the effects of gemcitabine in reducing cancer growth in vitro” value in series [3] (combination with gemcitabine) is reported as “did little or nothing to potentiate the effects of the chemotherapeutic agent gemcitabine in reducing cancer growth in vitro”. In addition, the “proliferation of MIA PaCa2-Luc cancer cells” value in series [4] is “do not reduce the proliferation of MIA PaCa2-Luc cancer cells”. Also, in the series on FC1199 cells, the “potentiation of gemcitabine repression of FC1199 cell growth” value is “did not potentiate the effects of gemcitabine in repressing of FC1199 cell growth”. Also, the “tumor burden in terms of pancreas weight, day 14” value in the series on FC1199 orthotopic tumors [1] (Experiment 2, day 14, vs control) was “effective in reducing the tumor burden in terms of reduced pancreas weight when compared to a control”. In addition, the “tumor burden in terms of pancreas weight, day 25” value with FC1199 orthotopic tumors [1] (Experiment 2, day 25, vs control) was “effective in reducing the tumor burden in terms of reduced pancreas weight when compared to a control”. Besides, in the series on FC1199 orthotopic tumors [1], the “potentiation of the therapeutic effects of gemcitabine / chemotherapeutic agent in vivo” value was “can potentiate the therapeutic effects of the standard chemotherapeutic agent gemcitabine”; the “tumor burden / tumor growth as measured by pancreas weight” value is “effective in reducing the growth of orthotopic FC1199 tumor burden as measured by pancreas weight; also recorded: effective in reducing tumor growth and weight”. In the series on FC1199 orthotopic tumors [1] (listed as CCNp38), the “potentiation of the therapeutic effects of gemcitabine / chemotherapeutic agent in vivo” value was “treat a solid tumor more effectively than the chemotherapeutic or immunotherapeutic agents alone”. In the series with FC1199 orthotopic tumors [1] (overview FIG. 1), the “expansion and spread of the tumor and cancer cells” value was “blocking the expansion and spread of the tumor and cancer cells”. In addition, in the series with FC1199 orthotopic tumors [5], the “desmoplasia as measured by matrix deposition area” value is reported as “effective in treating desmoplasia or stroma associated with a solid tumor; also recorded: a reduction in desmoplasia as measured by matrix deposition area”. Also, the “angiogenesis as measured by vessel number/vessel density” value in the series with FC1199 orthotopic tumors [6] was “reducing angiogenesis; also recorded: a reduction in angiogenesis as measured by vessel number/vessel density”. In the series with FC1199 orthotopic tumors [7] (day 25, vs control), the “number of mice with ascites / ascites formation” value is on record as “reducing the formation of ascites associated with a solid tumor; also recorded: effective in reducing the number of mice with ascites”. Further, in the series on FC1199 orthotopic tumors [7] (inferred from ascites data), the inflammation result was “reduce inflammation”.

B1: full-length CCN3 molecule: full-length CCN3 protein of U.S. Pat. No. 7,780,949 (protein, UniProt P48745 1-357, looked up)
chain: MQSVQSTSFCLRKQCLCLTFLLLHLLGQVAATQRCPPQCPGRCPATPPTCAPGVRAVLDGCSCCLVCARQRGESCSDLEPCDESSGLYCDRSADPSNQTGICTAVEGDNCVFDGVIYRSGEKFQPSCKFQCTCRDGQIGCVPRCQLDVLLPEPNCPAPRKVEVPGECCEKWICGPDEEDSLGGLTLAAYRPEATLGVEVSDSSVNCIEQTTEWTACSKSCGMGFSTRVTNRNRQCEMLKQTRLCMVRPCEQEPEQPTDKKGKKCLRTKKSLKAIHLQFKNCTSLHTYKPRFCGVCSDGRCCTPHNTKTIQAEFQCSPGQIVKKPVMVIGTCTCHTNCPKNNEAFLQELELKTTRGKM
modifications: full-length
For the molecule B1, the “fibrosis in an in vitro model of renal fibrosis” value in the series on renal fibrosis was “blocks fibrosis”.
